Test results taken from US20050130237A1, “High throughput screening method for compounds with non-, pro-, or anti-apoptotic or proliferative or necrotic activity” (priority 2002, published 2005).
Peptide text beside a SMILES is read from it. * marks the point of attachment. Cbz = O=C(OCc1ccccc1)*; CH2F = FC*

How the values were obtained:
Assay type in all cases: cell-based, human
[1] = tested on: HeLa cells; assay: Secondary screening: FACS analysis discriminating apoptotic and necrotic activity of anti-cancer drugs; details: for necrotic activity (FACS histograms): necrosis evident after exposure longer than 24 h, followed up to 48 h, Navelbine, Velbe, Campto 1/1000 diluted, Adriblastin 1/2000 diluted
Text: For this purpose HeLa cells have been treated with typical anti-cancer drugs of different mode of actions. Navelbine and Velbe, two typical representatives of microtubules interfering drugs and Adriblastin and Campto, topo-isomerase inhibitors, which interfere with DNA synthesis.
Arrows indicate regions with either necrotic cells (left arrow) or apoptotic cells (middle arrow) or proliferating/living cells (right arrow). […] This fact became evident after exposure of the cells for longer than 24 h.
HeLa cells have been treated with typical anti-cancer drugs of different mode of actions. Navelbine and Velbe, two typical representatives of microtubules interfering drugs and Adriblastin and Campto, topo-isomerase inhibitor, which interfere with DNA synthesis. Histograms of FACS analysis of cells treated either with Navelbine (1/1000 diluted), Velbe (1/1000 diluted), Adriblastin (1/2000 diluted) and Campto (1/1000 diluted) are shown in FIG. 4. Arrows indicate regions with either necrotic cells (left arrow), apoptotic cells (middle arrow) and proliferating cells (right arrow). […] This fact became evident after exposure of the cells for longer than 24 h.

[2] = tested on: HeLa cells; assay: Primary screening: overall EGFP relative fluorescence activity per well, fluorescence microplate reader, 96-well plates; details: values under 0.8 = pro-apoptotic and/or necrotic
Text: A representative primary screening with standard experimental set-up, where 16 commercially available anti-cancer drugs have been tested on five different EGFP expressing cell lines (HeLa, KB, A20, Ramos and Jurkat) in 96-well microtiter plates is shown in FIG. 2. Differential susceptibility regarding induction of apoptosis and/or necrosis after treatement with 5-Fluorouracil (5-FU), Gemzar, Methotrexate, Eloxantin, Detimedac, Endoxan, Paraplatin, Navelbine, Velbe, Taxotere, Taxol, Adriblastin, Bleomycin, Campto, Etopophos and Farmorubicin is shown. Measurements after 24 h and 48 h were performed with a fluorescence microplate reader, which measures the overall fluorescence activity in a single well. Used compound concentrations are indicated by a fraction of the original concentration.
The setting of a cut-off value, corresponding to 0.8 in this case, allows the clear discrimination between two main groups of different activities. […] According to these intermediate values between 0 and 0.8 measured by a fluorescence microplate reader, it can hardly be discriminated between the subpopulations of apoptotic and necrotic cells within the same well. […]
Immediately after the addition of the compounds to the cells the zero fluorescence value (t=0 h) was determined by using a fluorescence microplate reader in order to be able to normalize the fluorescence activities. […]

[3] = tested on: JurkatGFP cells; assay: Anti-apoptotic activity after induction of apoptosis by serially diluted soluble FasL, fluorescence microplate reader; details: 24 h incubation, compared with control peptide zFA
Text: The activity of an anti-apoptotic compound, e.g. the pan caspase inhibitor zVADfmk, has been tested on JurkatGFP cells after induction of apoptosis by serially diluted soluble FasL and measured by a fluorescence microplate reader. […] The bars indicate standard deviations, which have been determined by measuring 6 single values for each datapoint.

SMILES	necrotic activity (FACS histograms) [1]	other results
COc1cccc2c1C(=O)c1c(O)c3c(c(O)c1C2=O)C[C@@](O)(C(=O)CO)C[C@@H]3O[C@H]1C[C@H](N)[C@H](O)[C@H](C)O1 [Adriblastin]	do not show any tendency for necrotic activity	apoptotic activity (FACS histograms) ([1]; single-cell flow cytometry): only induce apoptosis; relative fluorescence activity (intermediate value, cut-off 0.8) ([2]; highest concentration 1/5 k of original concentration): 0.53
CCc1c2c(nc3ccc(OC(=O)N4CCC(N5CCCCC5)CC4)cc13)-c1cc3c(c(=O)n1C2)COC(=O)[C@]3(O)CC [Campto]	do not show any tendency for necrotic activity	–
CCC1=C[C@@H]2CN(C1)Cc1c([nH]c3ccccc13)[C@@](C(=O)OC)(c1cc3c(cc1OC)N(C)[C@H]1[C@@](O)(C(=O)OC)[C@H](OC(C)=O)[C@]4(CC)C=CCN5CC[C@]31[C@@H]54)C2 [Navelbine]	strong tendency to induce necrosis	relative fluorescence activity (intermediate value, cut-off 0.8) ([2]; highest concentration 1/10 k of original concentration): 0.49
CC[C@]1(O)C[C@@H]2CN(CCc3c([nH]c4ccccc34)[C@@](C(=O)OC)(c3cc4c(cc3OC)N(C)[C@H]3[C@@](O)(C(=O)OC)[C@H](OC(C)=O)[C@]5(CC)C=CCN6CC[C@]43[C@@H]65)C2)C1 [Velbe]	strong tendency to induce necrosis	–
COC(=O)C[C@H](NC(=O)[C@H](C)NC(=O)[C@@H](NC(=O)OCc1ccccc1)C(C)C)C(=O)CF [zVAD] (Cbz-Val-Ala-Asp(OMe)-CH2F)	–	anti-apoptotic effect on the apoptotic activity of FasL [3]: clear inhibitory anti-apoptotic effect
